Data as given in a melting point compilation (Tetko et al.; mined from patent text by program, amines drawn as free bases though some values may be those of a salt).

| SMILES | melting point [°C] |
| --- | --- |
| CCn1c(Nc2cc(C(F)(F)F)ccc2C(F)(F)F)nc(C(F)(F)F)c(Cl)c1=O | 144 to 146 |
| O=C(N[C@H]1CCN(Cc2ccccc2)C[C@H]1O)c1ccccc1O (relative stereo) | 127 |
| CC1(C)Cc2sc3c(c2C1)CCNC3=O | 205 to 207 |
| CCn1cc(C(=O)O)c(=O)c2cc(F)c(N3CC4CCCC3CN4C)c(F)c21 (stereo not drawn) | > 300 |
| Cc1ccc(C(=O)COc2cc(C)cc(C)c2C)nc1 | 94 to 95 |
| NC(=O)Cc1cc(Oc2ccc3c(ccn3C(=O)Nc3ccc(N4CCNCC4)c(C(F)(F)F)c3)c2)ncn1 | 149 to 152 |
| COc1cc(OC)nc(C(C)c2ccccc2N)n1 (stereo not drawn) | 136 to 139 |
| O=C(/C=C/[C@@H]1[C@H]2CC(=O)O[C@H]2C[C@H]1OC(=O)c1ccc(-c2ccccc2)cc1)COc1cccc(C(F)(F)F)c1 | 115 to 116 |
| NC(=O)Cc1cc(=O)oc2cc(OCc3cccc(Cl)c3)ccc12 | 185 to 186 |
| CCOC(=O)COc1ccc(NC(=O)c2sc(NC(=N)N)nc2C)cc1 | 223 |
| Fc1ccc2cc(C3=CCNCC3)sc2c1 | 155 to 157 |
| CCOC(=O)c1cn(C)c2ccc(F)cc2c1=O | 193 to 195 |
| Cc1c(Cc2ccc(Cl)cc2)c(=O)oc2cc(O)cc(O)c12 | 270 to 278 |
| O=C(O)c1c(Br)ccc(OC(F)(F)F)c1F | 112 |
| O=C(O)Cc1ccccc1OCCCc1cn(-c2ccc(C(F)(F)F)cn2)nc1-c1ccccc1 | 133 to 134 |
| O=c1[nH]c(=O)n(C2CC(O)C(COC3(c4ccccc4)c4ccccc4Oc4ccccc43)O2)cc1I (stereo not drawn) | 200 to 202 |
| CC(C)N(C(=O)CNc1ccccc1N)c1ccccc1 | 110 to 112 |
| O=P(O)(O)Cc1ccc(C(F)(F)F)cc1 | 163 to 164 |
| COc1ccc(C(=O)COC(=O)NC(C)C)cc1 | 121 to 122 |
| CN1CCN(c2ccc(C=CC(=O)N3CCc4c([nH]c5ccccc45)C3c3ccc4c(c3)CCO4)cn2)CC1 (stereo not drawn) | > 260 |
| CN(C)C=Cc1nc2ccccc2c(=O)n1-c1ccccc1Cl | 228 to 230 |

| SMILES | melting point [°C] |
| --- | --- |
| O=C(CCCl)N1CCc2ccc([N+](=O)[O-])cc21 | 127 to 128 |
| CC(C)N(C)C(=O)COCCCCCCCC[C@H]1C[C@]2(C)[C@@H](O)CC[C@H]2[C@@H]2CCc3cc(O)ccc3[C@@H]12 | 126 |
| COc1ccc(CCc2nc3ccccc3c(=O)n2CCN(C)C)cc1 | 73.5 to 74.5 |
| CC(CO)Nc1cc(Oc2nn(C)c(C(F)(F)F)c2Cl)ccc1N (stereo not drawn) | 110 to 112 |
| Cc1ccnc(C(=O)c2[nH]c3cc(Cl)c(Cl)cc3c2CC(=O)O)c1 | 220 to 224 |
| O=C(O)Cc1cc(OCc2ccccc2)ccc1OCc1ccccc1 | 95.5 to 100 |
| CC1CCCN(C(=O)C2Cc3ccc(F)cc3N2c2ccc(=O)n(C)n2)C1 (stereo not drawn) | 219 to 222 |
| NC(=O)CNC(=O)C1(N2CCCC2=O)CC1 | 180 |
| C=CCc1cc(C(=O)CC(=O)C(C)(C)C)cc(OC)c1O | 115 to 116 |
| COC1=C(OC)C(=O)C(CCCCCCCCCCCCCCCCCCO)=C(C)C1=O | 81 |
| COc1cccc2c(=O)[nH]c(C3CCN(C)CC3)cc12 | 239 to 242 |
| CC(=O)OC1(C(=O)COC(=O)CC(C)C)CCC2C3CC(C)C4=CC(=O)C=CC4(C)C3C(O)CC21C (stereo not drawn) | 126 to 130 |
| CC(=O)C(Cc1cc(Cl)cc(Cl)c1)C(C)=O | 85 to 87 |
| Nc1c2c(nc3ccccc13)CCc1cn(N)nc1-2 | > 250 |
| N[C@@H](Cc1ccccc1)[C@@H](O)C(F)(F)C(=O)NCc1ccccc1 | 128 to 130 |
| Cc1cc(Nc2ccc(Cl)cc2)nc(-n2nc(C)cc2C)n1 | 181 to 183 |
| CC/C=C\C=C/CCCCCCCCCC=O | 7 to 8 |
| O[C@H](COc1cccc2[nH]ccc12)CN1CCC(c2c[nH]c3c(Cl)c(Cl)ccc23)CC1 | 192 to 197 |
| OC1CCC(Nc2nc(Cl)nc(Cl)n2)CC1 (stereo not drawn) | 120 |
| CC(C)C(=O)Nc1cc([N+](=O)[O-])cc([N+](=O)[O-])c1 | 157 to 159 |
| C[C@@H](CN1CCc2ccc3c(c21)OCCO3)NC(=O)OC(C)(C)C | 130 to 132 |

Further lines, results first:

| melting point [°C] | SMILES |
| --- | --- |
| 218 | COc1ccc2c(c1OC)C(=O)C(O)=C(C)C2=O |
| 187 to 189 | COC(=O)c1cccc2c1nc(/C=C/c1ccc(OC)c(OC)c1)n2C |
| 153 to 155 | CCOC(=O)Cc1ccc(NC(=O)Nc2ccccc2)cc1 |
| 114 to 115 | CCOC(=O)CCCc1sc(N)nc1-c1ccc(Cl)cc1 |
| 107 to 108 | CCc1nc2c(c(=O)n(C)c(=O)n2C)n1CCCOc1ccccc1 |
| 96 to 97 | COC(=O)c1cncc(NC(=O)C(C)CS)c1 (stereo not drawn) |
| 66 to 68 | CCCCN(C)CCc1ccc(Nc2ncc3c(n2)-c2ccccc2C(c2cccc(Br)c2)C3)cc1 (stereo not drawn) |
| 170 to 171 | CCCCc1nc2cccc(CC(=O)O)c2n1Cc1ccc(-c2ccccc2-c2nnn[nH]2)cc1 |
| 81 to 84 | Cc1nc(NCCc2ccccc2)c2c(n1)N(c1ccccc1)C(=O)C2 |
| 97 to 99 | C[Si](Cn1ncnc1S)(c1ccc(F)cc1)c1ccc(F)cc1 |
| 124 to 125 | COc1ccc2c(c1)NC1(CCN(C)CC1)c1cccn1-2 |
| 149 to 151 | CCCCc1ccc(N2C(=O)CN(Cc3ccccc3)C2=S)cc1 |
| 159 to 162 | COc1cccc(COc2ccc(-c3cccc(NC(Cc4ccccc4)C(=O)O)c3)cc2)c1 (stereo not drawn) |
| 73 to 76 | CC(C)Oc1cccc(CC(=O)N2CCC(CCN3CCC(C(=O)c4nc5ccccc5n4Cc4ccc(F)cc4)CC3)(c3ccc4c(c3)OCO4)C2)c1 (stereo not drawn) |
| 72.5 to 74 | CCOCN1C(C)=C(C(=O)OC)C(c2cccc([N+](=O)[O-])c2)C(C(=O)OCCBr)=C1C (stereo not drawn) |
| 113 to 114 | CCc1noc(-c2cn(-c3cccc(OCc4ccccc4)c3)cn2)n1 |
| 223 to 224 | CN(CCCNC1=CC(=O)c2scnc2C1=O)CCCNC1=CC(=O)c2scnc2C1=O |
| 222 to 224 | Nc1nc2n(C3OC(CO)C(O)C3O)[nH]cc-2c(=S)n1 (stereo not drawn) |
| 245 | COc1cc2c(cc1OC)[C@@H]1CN(C)CC[C@@H]1N=C2c1ccc(NC(=O)C(C)(C)C)cc1 (relative stereo) |

| melting point [°C] | SMILES |
| --- | --- |
| 134 to 136 | C=CCOC(=O)COc1cccc(NC(=O)NCC(=O)N(CC(=O)OC(C)(C)C)c2ccccc2C(=O)c2ccccc2)c1 |
| 226 | CC(=O)OC1CSC(Oc2ccc(-c3ccc(F)nc3)nc2Cl)C(OC(C)=O)C1OC(C)=O (stereo not drawn) |
| 198 | CN(C)C(=O)C=C(N(C(N)=O)c1cc(F)c(C#N)cc1F)C(F)(F)F |
| 154 to 156 | FC(F)(F)c1ccc2nc3c(nc2c1)OCC1CCCCN31 (stereo not drawn) |
| 208 to 210 | COC(=O)C[C@H](O)C[C@H](O)C=Cc1c(-c2ccc(F)cc2)c(-c2ccc(F)cc2)c(C(=O)Nc2ccc(S(N)(=O)=O)cc2)n1C(C)C |
| 51.3 | ClC(Cl)=CCOc1cc(Cl)c(OCC=Cc2ccccc2)c(Cl)c1 |
| 90 to 91 | COc1cc2c(cc1OC)C(COCCCl)OCCC2 (stereo not drawn) |
| 127 to 135 | COc1cc(OCc2cccnc2)ccc1/C=C/c1cc(/C=C/c2ccc3[nH]ccc3c2)n[nH]1 |
| 119 to 121 | CC(C)c1cccc(C(C)C)c1NC(=O)CNC(c1ccccc1)c1ccccc1Cl (stereo not drawn) |
| 136 to 138 | COc1ccc2c(c1)CC(=O)N2N |
| 275 to 276 | O=c1cc(-c2cc(F)c(O)c(F)c2)oc2ccccc12 |
| 113 to 115 | COc1cc(Cl)cc2c1OC(C)(COS(=O)(=O)c1ccc(C)cc1)C2 (stereo not drawn) |
| 123 to 125 | CCN(CC)c1ccc(C2OC(=O)c3cc(N(C)C)ccc32)c(C)c1 (stereo not drawn) |
| 112 to 115 | CCOC(=O)c1ccc(-c2ccc(-c3ccc(OC)cc3)c(-c3ccc4c(c3)C(C)(C)CCC4(C)C)c2)cc1 |
| 138 to 139 | C#CC(O)c1cccc2ccncc12 (stereo not drawn) |
| 190 to 192 | O=[N+]([O-])c1ccc2c(c1)C=Cc1ccc(Br)cc1S2 |
| 146 to 147 | Cc1cc2nc3c4cc(Br)ccc4n(CCN(C)C)c3nc2cc1C |
| 144 to 145 | CC(=O)c1cc2c(cc1NC(=O)c1coc3ccccc13)OCO2 |
| 156 to 160 | CCN(CC)C(=O)C(C#N)=Cc1cc(O)c(O)c([N+](=O)[O-])c1 |

| melting point [°C] | SMILES |
| --- | --- |
| 232 to 233 | CSc1ncc(Oc2ccc(Cl)cc2)c(=O)[nH]1 |
| 128 | CCCCOCCOc1ccc(-c2ccc(N3CCCC3)c(C(C)=CC(=O)O)c2)cc1 |
| 186 to 187 | O=C(O)CCC1c2ccccc2C(=O)N1c1ccccc1 (stereo not drawn) |
| 129 to 131 | Fc1ccc(F)c2c(NCCc3ccc(Oc4ccnc(C(F)(F)F)c4Cl)cc3)ncnc12 |
| 123 to 125 | CC(C)(C)OC(=O)NCC1(CC(N)=O)CCCCC1 |
| 174 | NC(=O)N(O)CCNS(=O)(=O)c1ccc2ccccc2c1 |
| 207 to 210 | Cc1nc(-c2ccc3c(c2)OCO3)c2cc3c(cc2n1)OCO3 |
| 220 to 225 | Cc1ncc(-c2ccc(C(F)(F)F)cc2)c(NC2CCCCC2)n1 |
| 191 to 192 | Cn1c(-c2ccccc2F)c2ccsc2nc1=O |
| 147 to 149 | Cc1nc2ccccc2c(NCC(C)O)c1Br (stereo not drawn) |
| 231 to 233 | O=C1COc2ccc(C3=CN=C(c4ccccc4)SC3c3ccccc3)cc2N1 (stereo not drawn) |
| 111 to 112 | CCCc1nn(-c2ccc(C(F)(F)F)cn2)cc1CCCOc1ccc(F)c(CC(=O)O)c1 |
| 111 to 113 | CCCCCCCCCCCCc1ccc(C#Cc2c3ccccc3c(C#Cc3ccc(CCCCCCCCCCCC)cc3)c3ccccc23)cc1 |
| 113 to 115 | CN(Cc1cc2c3c(c1)c(=O)c(C(=O)NCc1ccc(F)cc1)cn3CC(=O)N2C)C[C@@H](O)c1cccs1 |
| 60 to 63 | CCOC(=O)c1cnc2sccc2c1Sc1ccc(C)cc1 |
| 93 to 96 | O=C1CCOc2c(O)cccc21 |
| 194 to 195 | CNC(=O)c1cc(F)ccc1CNC(=O)c1nc2n(c(=O)c1OCc1ccccc1)CCN2c1ccccc1 |
| 70 | CC(=O)NC[C@H]1CN(c2ccc(/C=C3\C(=O)N(c4ccccc4)N=C3C(C)(C)C)cc2)C(=O)O1 |
